Test [1] addresses T1, IL-23R (Homo sapiens, UniProt Q5VWK5). Put plainly: cell-based.
Excerpt: DB Cells IL23R pSTAT3 Cell Assay
Changes in phospho-STAT3 levels in the cell lysates were detected using the Cisbio HTRF pSTAT3 Cellular Assay Kit, according to manufacturer's Two Plate Assay protocol.
The target in test [2] is T1, IL-23R. Put plainly: cell-based. The note with it: PBMC pSTAT3 IC50 (nM), PBMCs from healthy donors, IL-23 5 ng/mL, 30 minutes, phosphorylated STAT3.

This is an account of results in patent US20240383954A1, “PEPTIDE INHIBITORS OF INTERLEUKIN-23 RECEPTOR AND THEIR USE TO TREAT INFLAMMATORY DISEASES” (Janssen Biotech, Inc., priority 2020, published 2024).

Counter-ions that a name gives are not always drawn. Like-named read-outs stand apart in the source and are kept apart here. Starred links: 1 amine or outer side, 2 acyl side, 3 side chain; linkers in the order of their positions; H or OH if unused. Positions of bridges follow the written chain, without caps; N, C: chain ends. Non-standard residues stand in square brackets, D forms with d. Residues, ends and D or L forms follow the SMILES beside them. *: point of attachment. Trp(7-Ph) = N[C@@H](Cc1c[nH]c2c(-c3ccccc3)cccc12)C(=O)O; Trp(7-Me) = Cc1cccc2c(C[C@H](N)C(=O)O)c[nH]c12; Abu(4-yl) = O=C([C@H](CC[*:3])N[*:1])[*:2]; 2Nal = N[C@@H](Cc1ccc2ccccc2c1)C(=O)O; AEF = NCCOc1ccc(C[C@H](N)C(=O)O)cc1; αMeF = C[C@](N)(Cc1ccccc1)C(=O)O; Cit = NC(=O)NCCC[C@H](N)C(=O)O; αMeL = CC(C)C[C@](C)(N)C(=O)O; Pen = CC(C)(S)[C@H](N)C(=O)O; αMeK = C[C@](N)(CCCCN)C(=O)O; Ac5c = NC1(C(=O)O)CCCC1; Thp = NC1(C(=O)O)CCOCC1; Propionyl = CCC(=O)*; Tfa = O=C(C(F)(F)F)*; X4 = C1CC(N*)CCN1

T1 sequence (Q5VWK5 24-629): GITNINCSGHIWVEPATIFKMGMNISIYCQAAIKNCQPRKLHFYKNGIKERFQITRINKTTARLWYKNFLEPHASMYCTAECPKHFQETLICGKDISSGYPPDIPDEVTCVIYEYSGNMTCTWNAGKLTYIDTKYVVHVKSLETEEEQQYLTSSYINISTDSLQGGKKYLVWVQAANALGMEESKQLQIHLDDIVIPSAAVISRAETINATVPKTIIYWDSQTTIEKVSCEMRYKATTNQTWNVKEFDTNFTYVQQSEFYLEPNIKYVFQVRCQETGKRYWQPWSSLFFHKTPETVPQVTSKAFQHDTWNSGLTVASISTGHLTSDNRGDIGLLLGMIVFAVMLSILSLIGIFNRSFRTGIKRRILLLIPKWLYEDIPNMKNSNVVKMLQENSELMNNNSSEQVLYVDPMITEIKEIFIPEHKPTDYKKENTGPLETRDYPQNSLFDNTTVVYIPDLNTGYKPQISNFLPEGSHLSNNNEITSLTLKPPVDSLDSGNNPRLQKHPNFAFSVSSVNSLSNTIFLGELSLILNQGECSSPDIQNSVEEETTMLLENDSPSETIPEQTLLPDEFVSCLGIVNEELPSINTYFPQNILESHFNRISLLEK

On to `CC(=O)NCCCC[C@@H]1NC(=O)[C@H](Cc2c[nH]c3c(C)cccc23)NC(=O)[C@H]([C@@H](C)O)NC(=O)[C@H](CC(N)=O)NC(=O)[C@@H](NC(C)=O)C(C)(C)SSC(C)(C)[C@@H](C(=O)N[C@@H](Cc2ccc(OCCN)cc2)C(=O)N[C@@H](Cc2ccc3ccccc3c2)C(=O)N[C@@](C)(CCCCN)C(=O)N[C@@H](CCCCNC(C)=O)C(=O)N[C@@H](CC(N)=O)C(=O)N[C@H](CC(C)C)C(=O)N[C@](C)(Cc2ccccc2)C(N)=O)NC1=O` [Compound 69, Ac-[Pen]-N-T-[W(7-Me)]-[Lys(Ac)]-[Pen]-Phe[4-(2-aminoethoxy)]-[2-Nal]-[a-MeLys]-[Lys(Ac)]-N-[(D)Leu]-[(D)aMePhe]-NH2], for which the IC50 on IL-23R [1] came out at 2.75 nM.

On IL-23R [1], `CC(=O)NCCCC[C@@H]1NC(=O)[C@H](Cc2c[nH]c3c(C)cccc23)NC(=O)[C@H]([C@@H](C)O)NC(=O)[C@H](CC(N)=O)NC(=O)[C@@H](NC(C)=O)C(C)(C)SSC(C)(C)[C@@H](C(=O)N[C@@H](Cc2ccc(OCCN)cc2)C(=O)N[C@@H](Cc2ccc3ccccc3c2)C(=O)N[C@@](C)(CCCCN)C(=O)N[C@@H](CCCCNC(C)=O)C(=O)N[C@@H](CC(N)=O)C(=O)NC(C)(C)C(=O)NCCCCCC(N)=O)NC1=O` [Compound 70, Ac-[Pen]-N-T-[W(7-Me)]-[Lys(Ac)]-[Pen]-Phe[4-(2-aminoethoxy)]-[2-Nal]-[a-MeLys]-[Lys(Ac)]-N-[Aib-Ahx]-NH2] returned an IC50 of 1.22 nM.

Turning to `CC(=O)NCCCC[C@@H]1NC(=O)[C@H](Cc2c[nH]c3c(C)cccc23)NC(=O)[C@@H](CC(=O)O)NC(=O)[C@H](CC(N)=O)NC(=O)[C@@H](NC(C)=O)C(C)(C)SSC(C)(C)[C@@H](C(=O)N[C@@H](Cc2ccc(OCCN)cc2)C(=O)N[C@@H](Cc2ccc3ccccc3c2)C(=O)N[C@@](C)(CCCCN)C(=O)N[C@@H](CCCCNC(C)=O)C(=O)N[C@@H](CC(N)=O)C(=O)N[C@H](CC(C)C)C(N)=O)NC1=O` [Compound 74, Ac-[Pen]-N-[(D)Asp]-[W(7-Me)]-[Lys(Ac)]-[Pen]-Phe[4-(2-aminoethoxy)]-[2-Nal]-[a-MeLys]-[Lys(Ac)]-N-[(D)Leu]-NH2] (Ac-[Pen]N[dD][Trp(7-Me)]K(Ac)[Pen][AEF][2Nal][αMeK]K(Ac)N[dL]-NH2; disulfide 1-6), at IL-23R [1], the IC50 amounted to 73.1 nM.

Take `CC(=O)NCCCC[C@@H]1NC(=O)[C@H](Cc2c[nH]c3c(-c4ccccc4)cccc23)NC(=O)[C@H]([C@@H](C)O)NC(=O)[C@H](CCC(N)=O)NC(=O)[C@@H](NC(C)=O)CCSC[C@@H](C(=O)N[C@@H](Cc2ccc(OCCN)cc2)C(=O)N[C@@H](Cc2ccc3ccccc3c2)C(=O)N[C@@](C)(CCCCN)C(=O)N[C@@H](CCCCNC(C)=O)C(=O)N[C@@H](CC(N)=O)C(=O)N[C@@](C)(Cc2ccccc2)C(N)=O)NC1=O` [Compound 67, Ac-[Abu]-Q-T-[W(7-Ph)]-[Lys(Ac)]-[Cys]-Phe[4-(2-aminoethoxy)]-[2-Nal]-[a-MeLys]-[Lys(Ac)]-N-[a-MePhe]-NH2] (Ac-[Abu(4-yl)]QT[Trp(7-Ph)]K(Ac)C[AEF][2Nal][αMeK]K(Ac)N[αMeF]-NH2; thioether 1-6): on IL-23R [1], it took 5.52 nM to reach half-maximal inhibition (IC50). This IC50 lies about 13-fold lower than the previous one.

Regarding `CC(=O)NCCCC[C@H](NC(=O)C1(NC(=O)[C@H](Cc2ccc3ccccc3c2)NC(=O)[C@H](Cc2ccc(OCCN)cc2)NC(=O)[C@H]2NC(=O)[C@H](CCC(N)=O)NC(=O)[C@H](Cc3c[nH]c4ccccc34)NC(=O)[C@H]([C@@H](C)O)NC(=O)[C@H](CCC(N)=O)NC(=O)[C@@H](NC(=O)[C@@H](CCCNC(=N)N)NC(C)=O)C(C)(C)SSC2(C)C)CCOCC1)C(=O)N[C@@H](CC(N)=O)C(=O)NC1(C(N)=O)CCOCC1` [Compound 56, Ac-[(D)Arg]-[Pen]-Q-T-W-Q-[Pen]-Phe[4-(2-aminoethoxy)]-[2-Nal]-[THP]-[Lys(Ac)]-N-[THP]-NH2], 4.9 nM corresponded to half-maximal inhibition against IL-23R [2] (IC50).

At IL-23R [2], `CC(=O)NCCCC[C@@H]1NC(=O)[C@H](Cc2c[nH]c3ccccc23)NC(=O)[C@H]([C@@H](C)O)NC(=O)[C@H](CC(N)=O)NC(=O)[C@@H](NC(=O)[C@@H](CCCNC(=N)N)NC(C)=O)C(C)(C)SSC(C)(C)[C@@H](C(=O)N[C@@H](Cc2ccc(OCCN)cc2)C(=O)N[C@@H](Cc2ccc3ccccc3c2)C(=O)NC2(C(=O)N[C@@H](CCC(=O)O)C(=O)N[C@@H](CC(N)=O)C(=O)N[C@@](C)(Cc3ccccc3)C(N)=O)CCCC2)NC1=O` [Compound 102, Ac-[(D)Arg]-[Pen]-N-T-W-[Lys(Ac)]-[Pen]-Phe[4-(2-aminoethoxy)]-[2-Nal]-[Acvc]-E-N-[a-MePhe]-NH2] (Ac-[dR][Pen]NTWK(Ac)[Pen][AEF][2Nal][Ac5c]EN[αMeF]-NH2; disulfide 2-7) returned an IC50 of 8.4 nM.

The molecule `CCC(=O)NCCCC[C@H](NC(=O)C1(NC(=O)[C@H](Cc2ccc3ccccc3c2)NC(=O)[C@H](Cc2ccc(OCCN)cc2)NC(=O)[C@H]2NC(=O)[C@H](CCC(N)=O)NC(=O)[C@H](Cc3c[nH]c4ccccc34)NC(=O)[C@H]([C@@H](C)O)NC(=O)[C@H](CCC(N)=O)NC(=O)[C@@H](NC(=O)[C@@H](CCCNC(=N)N)NC(C)=O)C(C)(C)SSC2(C)C)CCOCC1)C(=O)N[C@@H](CC(N)=O)C(=O)N[C@@H](Cc1ccccc1)C(N)=O` [Compound 54, Ac-[(D)Arg]-[Pen]-Q-T-W-Q-[Pen]-Phe[4-(2-aminoethoxy)]-[2-Nal]-[THP]-[Lys(COEt)]-N-F-NH2] (Ac-[dR][Pen]QTWQ[Pen][AEF][2Nal][Thp]K(Propionyl)NF-NH2; disulfide 2-7) registered a concentration for half-maximal inhibition (IC50) against IL-23R [2] of 47 nM.

Molecule `CC(=O)N[C@H](CCCNC(=N)N)C(=O)N[C@@H]1C(=O)N[C@@H](CC(N)=O)C(=O)N[C@@H]([C@@H](C)O)C(=O)N[C@@H](Cc2c[nH]c3c(C)cccc23)C(=O)N[C@@H](CCCNC(N)=O)C(=O)N[C@H](C(=O)N[C@@H](Cc2ccc(OCCN)cc2)C(=O)N[C@@H](Cc2ccc3ccccc3c2)C(=O)N[C@@](C)(CC(C)C)C(=O)N[C@@H](CCC(=O)O)C(=O)N[C@@H](CC(N)=O)C(=O)N[C@@](C)(Cc2ccccc2)C(N)=O)C(C)(C)SSC1(C)C` [Compound 149, Ac-[(D)Arg]-[Pen]-N-T-[W(7-Me)]-[Cit]-[Pen]-Phe[4-(2-aminoethoxy)]-[2-Nal]-[aMeLeu]-E-N-[a-MePhe]-NH2] (Ac-[dR][Pen]NT[Trp(7-Me)][Cit][Pen][AEF][2Nal][αMeL]EN[αMeF]-NH2; disulfide 2-7) registered an IC50 against IL-23R [2] of 2.3 nM. Against the preceding molecule, the IC50 is about 20-fold lower.

For the molecule `CC(=O)NCCCC[C@H](NC(=O)[C@](C)(CC(C)C)NC(=O)[C@H](Cc1ccc2ccccc2c1)NC(=O)[C@H](Cc1ccc(OCCN)cc1)NC(=O)[C@H]1NC(=O)[C@H](CCCNC(N)=O)NC(=O)[C@H](Cc2c[nH]c3c(C)cccc23)NC(=O)[C@H]([C@@H](C)O)NC(=O)[C@H](CC(N)=O)NC(=O)[C@@H](NC(C)=O)C(C)(C)SSC1(C)C)C(=O)N[C@@H](CC(N)=O)C(=O)NC1(C(N)=O)CCOCC1` [Compound 108, Ac-[Pen]-N-T-[W(7-Me)]-[Cit]-[Pen]-Phe[4-(2-aminoethoxy)]-[2-Nal]-[aMeLeu]-[Lys(Ac)]-N-[THP]-NH2] (Ac-[Pen]NT[Trp(7-Me)][Cit][Pen][AEF][2Nal][αMeL]K(Ac)N[Thp]-NH2; disulfide 1-6), the IC50 at IL-23R [2] stood at 5.1 nM.

The molecule `CC(=O)N[C@H](CCCNC(=N)N)C(=O)N[C@@H]1C(=O)N[C@@H](CCC(N)=O)C(=O)N[C@@H]([C@@H](C)O)C(=O)N[C@@H](Cc2c[nH]c3ccccc23)C(=O)N[C@@H](CCC(N)=O)C(=O)N[C@H](C(=O)N[C@@H](Cc2ccc(OCCN)cc2)C(=O)N[C@@H](Cc2ccc3ccccc3c2)C(=O)NC2(C(=O)N[C@@H](CCCCNC(=O)C(F)(F)F)C(=O)N[C@@H](CC(N)=O)C(=O)N[C@@H](Cc3ccccc3)C(N)=O)CCOCC2)C(C)(C)SSC1(C)C` [Compound 60, Ac-[(D)Arg]-[Pen]-Q-T-W-Q-[Pen]-Phe[4-(2-aminoethoxy)]-[2-Nal]-[THP]-[Lys(COCF3)]-N-F-NH2] (Ac-[dR][Pen]QTWQ[Pen][AEF][2Nal][Thp]K(Tfa)NF-NH2; disulfide 2-7) registered an IC50 against IL-23R [2] of 44 nM.

With `CC(=O)N[C@H](CCCNC(=N)N)C(=O)N[C@@H]1C(=O)N[C@@H](CCC(N)=O)C(=O)N[C@@H]([C@@H](C)O)C(=O)N[C@@H](Cc2c[nH]c3ccccc23)C(=O)N[C@@H](CCC(N)=O)C(=O)N[C@H](C(=O)N[C@@H](Cc2ccc(OCCN)cc2)C(=O)N[C@@H](Cc2ccc3ccccc3c2)C(=O)NC2(C(=O)N[C@@H](CCC(=O)O)C(=O)N[C@@H](CC(N)=O)C(=O)N[C@@H](CC(=O)NC3CCNCC3)C(N)=O)CCOCC2)C(C)(C)SSC1(C)C` [Compound 127, Ac-[(D)Arg]-[Pen]-Q-T-W-Q-[Pen]-Phe[4-(2-aminoethoxy)]-[2-Nal]-[THP]-E-N-[(N-Pip)Asn]-NH2] (Ac-[dR][Pen]QTWQ[Pen][AEF][2Nal][Thp]END(X4)-NH2; disulfide 2-7), the IC50 on IL-23R [2] is 48 nM.

At IL-23R [2], `CCC(=O)N[C@H](CCCNC(=N)N)C(=O)N[C@@H]1C(=O)N[C@@H](CCC(N)=O)C(=O)N[C@@H]([C@@H](C)O)C(=O)N[C@@H](Cc2c[nH]c3ccccc23)C(=O)N[C@@H](CCC(N)=O)C(=O)N[C@H](C(=O)N[C@@H](Cc2ccc(OCCN)cc2)C(=O)N[C@@H](Cc2ccc3ccccc3c2)C(=O)NC2(C(=O)N[C@@H](CCCCNC(=O)C(C)(C)C)C(=O)N[C@@H](CC(N)=O)C(=O)NC3(C(N)=O)CCOCC3)CCOCC2)C(C)(C)SSC1(C)C` [Compound 7, [Propionic_acid]-[(D)Arg]-[Pen]-Q-T-W-Q-[Pen]-Phe[4-(2-aminoethoxy)]-[2-Nal]-[THP]-[Lys(COtBu)]-N-[THP]-NH2] returned an IC50 of 8.6 nM. This IC50 lies about 5.6-fold lower than the previous one.

`CC(=O)NCCCC[C@@H]1NC(=O)[C@H](Cc2c[nH]c3ccccc23)NC(=O)[C@H]([C@@H](C)O)NC(=O)[C@H](CC(N)=O)NC(=O)[C@@H](NC(=O)[C@@H](CCCNC(=N)N)NC(C)=O)C(C)(C)SSC(C)(C)[C@@H](C(=O)N[C@@H](Cc2ccc(OCCN)cc2)C(=O)N[C@@H](Cc2ccc3ccccc3c2)C(=O)NC2(C(=O)N[C@@H](CCC(=O)O)C(=O)N[C@@H](CC(N)=O)C(=O)NC3(C(N)=O)CCOCC3)CCCC2)NC1=O` [Compound 88, Ac-[(D)Arg]-[Pen]-N-T-W-[Lys(Ac)]-[Pen]-Phe[4-(2-aminoethoxy)]-[2-Nal]-[Acvc]-E-N-[THP]-NH2] (Ac-[dR][Pen]NTWK(Ac)[Pen][AEF][2Nal][Ac5c]EN[Thp]-NH2; disulfide 2-7) showed an IC50 against IL-23R [2] of 3.7 nM.
